The source of these data is ChEMBL document CHEMBL3301361, “Experimental in vitro DMPK and physicochemical data on a set of publicly disclosed compounds”.

The data set in a line: physchem. Conditions: octan-1-ol/water, pH 7.4, LogD7.4.

Usually logD stands for lipophilicity at a set pH, counting ionised and neutral species. Low values mean lower lipophilicity, high ones higher lipophilicity. Turning to `C/N=C(\S)n1nc(-c2ccc(Cl)cc2)nc1N`, the logD came to 4.12.

The molecule `Fc1cc(F)cc(-c2cc(N(CCCN3CCCCCC3)Cc3ccc4c(c3)OCO4)on2)c1` returned a logD of 3.84.

As to `N#Cc1ccc(-c2csc(Nc3ccc(O)cc3)n2)cc1`, the log distribution coefficient (logD) amounted to 4.1.

In turn, `CCN(C(=O)NCc1ccc(F)cc1)C1CCN(CCC(c2ccccc2)c2ccccc2)CC1` returned a logD of 3.9.

Take `COc1cccc(Nc2nc(NCC3CCCO3)c3ccccc3n2)c1` (stereo not given): the logD amounted to 3.9.

`N[C@@H](Cc1ccc(F)cc1)C(=O)O` had a logD of -1.06.

For `N#CCc1c[nH]c2ccc(OCc3ccccc3)cc12`, the logD stood at 3.71.

`O=C(CCCc1ccncc1)N1CCN(c2ccc(Cl)cc2Cl)CC1` gave a logD of 3.93.

For the molecule `CC(C)(C)NC(=O)C(c1ccncc1)N(Cc1ccco1)C(=O)c1ccc(-c2ccccc2)[nH]1` (stereo not given), the logD was determined as 4.13.

The molecule `Cc1ccc(C(=O)N2CCC(C(=O)c3ccc(Cl)cc3)CC2)cc1` came in with a logD of 3.79.

`O=C(CC12CC3CC(CC(C3)C1)C2)Nc1cccc2ncccc12` yielded a logD of 3.83.

As for `Cc1cc(NCc2ccccc2)nc2ccccc12`, the logD worked out at 3.69.

`Cc1[nH]c2nc(NCc3cccc(Br)c3)nn2c(=O)c1Cc1ccccc1` had a logD of 3.68.

`Cc1ccc(Oc2ccc(C(=O)NCc3ccncc3)cc2)cc1` returned a logD of 3.65.

Turning to `Cn1c(CN2CCN(c3cccc(Cl)c3)CC2)nc2ccccc21`, the logD stood at 3.75.

Molecule `CCNc1nc(N)c(C(=O)c2ccc(Cl)s2)s1` yielded a logD of 3.63.

As to `Clc1ccc(-c2cn3ccccc3n2)cc1`, the logD is 4.

With `COc1ccc(/C=C2/CCc3ccccc3C2=O)cc1CN1CCOCC1`, the logD is 3.8.

`CCCc1c(C(=O)Nc2cc(C)on2)cnn1-c1ccccc1`: the logD came to 3.7.

Molecule `COc1ccc(Cl)cc1C(=O)Nc1nc2ccccc2[nH]1` showed a logD of 4.05.

The molecule `CN1CCOc2nc(C#Cc3ccccc3)ccc21` returned a logD of 3.8.

The molecule `CCN1CCOc2cc(COc3ccccc3)cnc21` returned a logD of 3.7.

Molecule `CC[C@H](NC(=O)c1c([S+](C)[O-])c(-c2ccc(F)cc2)nc2ccccc12)c1ccccc1` (stereo not given in full) displayed a logD of 3.72.

The molecule `CC[C@H](NC(=O)c1c([S+]([O-])C(C)C)c(-c2ccccc2)nc2ccccc12)c1ccccc1` (stereo not given in full) registered a logD of 3.81.

In the case of `CC[C@H](NC(=O)c1c([S+](C)[O-])c(-c2ccccc2)nc2cc(F)ccc12)c1ccccc1` (stereo not given in full), the logD was determined as 3.62.

`CC1CC(CN)CC(CO)C1` (stereo not given): the logD was -1.4.

Consider `Cc1[nH]c2nc(NCc3ccc(Cl)cc3)nn2c(=O)c1Cc1ccccc1`, for which the logD worked out at 3.7.

Molecule `Cc1ccc(CO)cc1N(C)c1ccnc(Nc2cc(OC3CCOCC3)cc(N3CCOCC3)c2)n1` returned a logD of 3.7.

`Cc1ccc(CO)cc1N(C)c1ccnc(Nc2cc(N3CCOCC3)nc(N3CCOCC3)n2)n1` registered a logD of 3.9.

Regarding `N#Cc1ccc(OCC(=O)O)c(-c2ccccc2)c1`, the logD was -1.08.

As to `COc1cc(F)ccc1-c1cncc(CNC(=O)c2ccccc2)c1`, the logD stood at 3.76.

`CCCNC(=O)c1nnc2c(-c3ccccc3)cccc2c1N`: the logD is 3.8.

Molecule `COc1ccc(OC)c(-c2cccc3c(N)c(C(=O)NC(C)C)nnc23)c1` came in with a logD of 3.65.

As to `COc1ccc(OC)c(-c2c(F)ccc3c(N)c(C(=O)NC(C)C)nnc23)c1`, the logD is 3.77.

The molecule `CCN(C(=O)Cc1ccc(S(=O)(=O)N(C)C)cc1)C1CCN(CCC(c2ccccc2)c2ccccc2)CC1` returned a logD of 3.7.

`CCN(C(=O)NCc1ccccc1)C1CCN(CCC(c2ccccc2)c2ccccc2)CC1` showed a logD of 4.

The molecule `CN(C(=O)Cc1ccc(C#N)cc1)C1CCN(CCC(c2ccccc2)c2ccccc2)CC1` showed a logD of 3.7.

For the molecule `COc1cc(N2CCN(C(C)=O)CC2)ccc1Nc1ncc(Br)c(-c2cnc3ccccn23)n1`, the logD stood at 3.7.

In turn, `COc1cc(N2CCN(C(C)=O)CC2)ccc1Nc1ncc(Cl)c(-c2cnc3cc(F)ccn23)n1` yielded a logD of 3.7.

Molecule `COc1cc(N2CCN(C(C)=O)CC2)ccc1Nc1ncc(Cl)c(-c2cnc3ccc(N(C)C)cn23)n1` displayed a logD of 4.1.

The molecule `CCN(C(=O)Cc1ccc(C#N)cc1)C1CCN(CCC(c2ccccc2)c2ccccc2)CC1` had a logD of 3.9.

For the molecule `COC(=O)c1ccc(CC(=O)N(C)C2CCN(CCC(c3ccccc3)c3ccccc3)CC2)cc1`, the logD was found to be 4.

Take `O=C(O)CSc1c[nH]c2ccccc12`: the logD was -1.31.

On to `N#Cc1cccc(C(=O)Nc2cc(-c3ccccc3)nn2-c2ccccc2)c1`, for which the logD was found to be 3.82.

As for `Oc1ccc(-c2ccc3cc(O)ccc3c2)cc1`, the logD came to 4.

As to `COc1ccc(-c2ccccc2)cc1N1CC(=O)NS1(=O)=O`, the logD is -1.01.

`CN(C)CCCNC(=O)c1nc(Cl)c(N)nc1N` came in with a pH-dependent lipophilicity (logD) of -1.

On to `Oc1ccc(C(c2ccc(O)cc2)C(Cl)(Cl)Cl)cc1`, for which the logD stood at 3.86.

As for `O=c1cc(N2CCOCC2)oc2c(-c3cccc4c5c(sc34)CCCC5)cccc12`, the logD came to 4.1.

Turning to `O=C(Nc1ccc(C(F)(F)F)c(Cl)c1)N1CCN(C[C@@H]2CCCN(C3CC3)C2)CC1`, the log distribution coefficient (logD) is 4.06.

In the case of `O=[N+]([O-])c1cccc2ccc(C(Cl)(Cl)Cl)nc12`, the logD worked out at 3.7.

With `O=C(Nc1ccc(Cl)nc1)c1ccc(F)c(Cl)c1`, the logD is 3.64.

With `CC(C)Cn1c(=O)n(C)c(=O)c2c(SCCCO)c(Cc3ccccc3C(F)(F)F)sc21`, the logD was 4.05.

Turning to `COc1ccc(-c2cccc3c(N)c4c(nc23)CN(C2CCC2)C4=O)c(C)n1`, the logD is 3.92.

Molecule `C[C@@H]1CN(c2noc(C(F)(F)F)n2)CCN1c1ncc(OCc2ccncc2C#N)cn1` yielded a logD of 3.95.

As for `Cn1ncnc1-c1c2c(=O)n(C)c(=O)n(CC3CC3)c2nn1Cc1ccnc2ccc(Cl)cc12`, the logD was found to be 3.8.

For `C#CCn1c(=O)c2c(-c3cc(C#N)cn3C)n(Cc3ccnc4ccc(Cl)cc34)nc2n(CC2CC2)c1=O`, the logD worked out at 3.96.

For `CCn1c(=O)c2c(-c3cc(C#N)cn3C)n(Cc3ccnc4ccc(Cl)cc34)nc2n(CC2CC2)c1=O`, the logD is 4.13.

Molecule `C=CCn1c(=O)c2c(-c3nc(C#N)cn3C)n(Cc3ccnc4ccc(Cl)cc34)nc2n(CC2CC2)c1=O` returned a logD of 3.92.

In the case of `CC(C)Cn1c(=O)n(C)c(=O)c2c(-c3cncn3C)n(Cc3cccc4ccccc34)nc21`, the logD is 4.1.

The molecule `Cc1cn([C@H]2CCCN(Cc3cccc(Oc4cccc(Br)c4)c3)C2)c(=O)[nH]c1=O` registered a logD of 3.68.

Turning to `Cc1cn([C@H]2CCCN(Cc3ccc(C(=O)O)c(Oc4cccc(F)c4)c3)C2)c(=O)[nH]c1=O`, the logD was -1.03.

Turning to `Oc1nc(S)nc2nc[nH]c12`, the pH-dependent lipophilicity (logD) is -1.48.

For `COc1cc2ncnc(N3CC[C@@H](Oc4cnc5ccccc5n4)C3)c2cc1OC`, the logD was 4.04.

`O=C(NC[C@@H](O)CN1CCC(Oc2ccc(Cl)c(Cl)c2)CC1)c1c[nH]c(=O)c2ccc(F)cc12` returned a logD of 3.93.

`O=C(NCc1ccco1)c1ccc2[nH]c(COc3ccc(C45CC6CC(CC(C6)C4)C5)cc3)nc2c1` registered a logD of 4.

`COc1cc(C(=O)Nc2ccc(N3CCOCC3)cc2)nc2c(N3CCN(C)CC3)cc(F)cc12` showed a logD of 3.85.

With `NC1(C(=O)NC(c2ccccc2)c2ccc(Cl)cc2)CCN(c2ncnc3[nH]ccc23)CC1` (stereo not given), the logD is 4.1.

`C[C@@H]1CN(c2nc(N3CCOC[C@@H]3C)c3ccc(-c4ccccc4)nc3n2)C[C@H](C)O1` had a logD of 3.75.

On to `O=C(NC1Cc2ccccc2N(CC(CO)CO)C1=O)c1cc2cc(Cl)ccc2[nH]1` (stereo not given), for which the log distribution coefficient (logD) was 3.64.

Molecule `CCC[C@H](CO)Nc1nc(SCc2ccccc2)nc2nc(N)sc12` registered a logD of 3.8.

Consider `CNc1nc2nc(SCc3cccc(F)c3F)nc(N[C@H](C)CO)c2s1`, for which the log distribution coefficient (logD) was determined as 3.7.

On to `Cn1cc(C#N)cc1-c1c2c(=O)n(C)c(=O)n(CC3CC3)c2nn1Cc1ccnc2ccc(Cl)cc12`, for which the logD was determined as 3.67.

`O=C1c2ccccc2CN1C1CCN(CCC(c2ccccc2)c2ccccc2)CC1` yielded a logD of 4.1.

On to `O=C(COc1ccc(SCCCCCc2ccccc2)cc1)COc1ccc(C(=O)O)cc1`, for which the logD worked out at 3.63.

On to `Clc1cccc(Cl)c1/C(=C/n1cncn1)OC1CCCCCC1`, for which the logD came to 4.1.

`Clc1cccc(Nc2ncnc3ccccc23)c1` returned a logD of 3.9.

In turn, `O=C1CCC(=O)N1C(CCc1ccncc1)COc1ccc(-c2cccc([N+](=O)[O-])c2)cc1` (stereo not given) displayed a logD of 3.88.

As to `CNC(=O)c1cccc(NC(=O)Nc2cccc(C#N)c2)c1CN1CCC(Cc2ccc(F)cc2)CC1`, the logD turned out to be 3.97.

`O=C(C(=O)c1cc(Br)ccc1O)c1cc(Br)ccc1O` came in with a logD of 3.85.

On to `CC(C)Cn1c(=O)n(C)c(=O)c2c(C(=O)N3CCCC3)c(Cc3ccccc3C(F)(F)F)sc21`, for which the logD was 3.8.

Consider `Cn1c(N)nc(CCc2cccc(-c3ccccc3)c2)cc1=O`, for which the logD stood at 3.8.

With `Cc1ccc(NC(=O)CCC2CCCCC2)cc1NC(=O)c1ccc(O)cc1`, the logD is 4.13.

As to `Oc1ccc(-c2csc(-c3ccc(O)cc3)n2)cc1`, the logD stood at 3.7.

Regarding `Oc1ccc2nc(-c3ccccc3)sc2c1`, the logD is 3.99.

The molecule `Cc1ccc(NC(=O)c2cccc(C(F)(F)F)c2)cc1NC(=O)c1ccc2ncccc2c1` displayed a logD of 3.87.

In the case of `Brc1cnc(NCc2ccccc2)nc1Nc1cc(C2CC2)n[nH]1`, the logD worked out at 4.11.

For `O=c1[nH]ccc2nc(-c3ccc(CN4CCC(c5n[nH]c(-c6ccccn6)n5)CC4)cc3)c(-c3ccccc3)cc12`, the logD turned out to be 3.9.

`CC[C@H](NC(=O)c1c(N)c(-c2cccc(F)c2)nc2ccccc12)c1ccccc1` returned a logD of 4.05.

The molecule `COc1cc(C(=O)Nc2ccc(Cl)c(-c3nc4ccccc4[nH]3)c2)cc(OC)c1OC` registered a logD of 3.83.

Consider `Oc1ccc2[nH]c(CN3CCC(Cc4ccc(F)cc4)CC3)nc2c1`, for which the logD is 3.8.

Molecule `Nc1ccc2[nH]c(Cc3ccc(Oc4ccccc4)cc3)nc2c1` yielded a logD of 3.8.

In turn, `CCN(CC)S(=O)(=O)c1ccc(NC(=O)[C@@](C)(O)C(F)(F)F)c(Cl)c1` registered a logD of 3.66.

On to `Cn1nc(C(C)(C)C)cc1NC(=O)Nc1ccc(Cl)cc1`, for which the logD came out at 3.97.

For the molecule `CC(C)(C)C(=O)NCc1ccc(NC(=O)N2CCCC(O)(c3ccc(Cl)c(Cl)c3)C2)cc1` (stereo not given), the logD was 3.93.
